Data published in patent publication US10485773B2, “Benzenesulfonamide derivatives and method for treating cancer” (GONGWIN BIOPHARM HOLDINGS CO., LTD., priority 2016, dated 2019).
Values after ≈ are worked out from the molar mass of the structure shown. Values joined by “and” are separate entries in the source; they are usually repeats but may differ in a detail not shown here. Equal entries are not always repeated. Where two headings read alike, the source gives them in different places.

What was measured:
[1] = first dissolution test in DMSO or water; conditions: for Total volume of DMSO for dissolving the p-TSA derivatives / Total volume of water for dissolving the p-TSA derivatives: first dissolution test, amount for a 3M solution in 0.5 mL, up to 15000 μL; for solubility: thermodynamic from solid
Description: Each of the powder of p-TSA derivatives was duplicated, placed in each 15 mL centrifuge tube, followed by adding 200 μL DMSO or 200 μL water and shaking for 10 to 20 seconds for dissolution observation. If the powder was not dissolved, additional DMSO or water was added, and then the mixture was shaken. The tube was left to stand for 10 minutes for observation if the powder was still not dissolved after adding 1 mL DMSO or 1 mL water. If the powder was still not dissolved after adding 5 mL DMSO or 5 mL water, additional 1 mL DMSO or 1 mL water was added, and then the mixture was shaken for 30 seconds. If the powder was still not dissolved after adding 10 mL DMSO or 10 mL water, the tube was left to stand for 12 to 16 hours and observed on the next day. DMSO or water was added into the tube having the undissolved p-TSA derivatives up to 15 mL, followed by shaking for 30 minutes for observation.

[2] = tested on: human non-small-cell lung cancer cell lines H460; experiment: SRB growth inhibition of lung cancer cells; format: cell-based
Description: (§1) After letting to stand for 10 minutes at room temperature, the supernatant of each well was removed, and each well was washed with 200 μL H2O once. […] Each of the plates was then placed in the laminar flow cabinet for 1 hour for air dry. 50 μL 0.4% sulforhodamine B (SRB) dye was added into each well of the 96-well plate. […] Each of the plates was then placed in the laminar flow cabinet for 40 minutes to 1 hour for air dry. 1×Tris-Base solution with pH 7.0 to 7.4 was added to each well of the 96-well plate to dissolve the protein complex formed in the bottom of each well, followed by tapping the 96-well plate, allowing the complex in each well to be dissolved uniformly. Absorption of each well under 515 nm was read. […] Each of the experimental group was performed in triplet.

[3] = tested on: human liver cancer cell lines Hep3B; experiment: SRB growth inhibition of liver cancer cells; format: cell-based
Description: as §1

[4] = Homo sapiens, NCI-H460, 48 h, derivative dissolved in DMSO, 48 hours, SRB, read-out: IC50 of H460 in DMSO
[5] = Homo sapiens, Hep3B, 48 h, derivative dissolved in DMSO, 48 hours, SRB, read-out: IC50 of Hep3B in DMSO
[6] = DMSO, organic solvent or mixture
[7] = Homo sapiens, NCI-H460, 48 h, derivative dissolved in water, 48 hours, SRB, read-out: IC50 of H460 in water
[8] = derivative dissolved in DMSO, 48 hours, SRB, read-out: IC50 of H460 in DMSO
[9] = derivative dissolved in DMSO, 48 hours, SRB, read-out: IC50 of Hep3B in DMSO
[10] = Homo sapiens, Hep3B, 48 h, derivative dissolved in water, 48 hours, SRB, read-out: IC50 of Hep3B in water

SMILES	Total volume of DMSO for dissolving the p-TSA derivatives ([1]; DMSO)	Total volume of water for dissolving the p-TSA derivatives ([1]; water)	IC50 [2, 4] [µM]	IC50 [3, 5] [µM]	also measured
Cc1ccc(S(=O)(=O)NCC(O)CO)cc1 (stereo not drawn) [PTSA028]	620 µL	insoluble in 15000 μL	5530	5360	–
Cc1ccc(S(=O)(=O)NCC2CCNCC2)cc1.Cl [PTSA054]	740 µL	insoluble in 15000 μL	1170	935	–
Cc1ccc(S(=O)(=O)NC[C@H](C)O)cc1 [PTSA023]	500 µL	insoluble in 15000 μL	2890	2650	–
Cc1ccc(S(=O)(=O)NC(=O)NS(=O)(=O)c2ccc(C)cc2)cc1 [PTSA017]	2000 µL	insoluble in 15000 μL	> 3000	> 3000	–
Cc1ccc(S(=O)(=O)NC2CCN(Cc3ccccc3)CC2)cc1.Cl [PTSA052i]	4000 µL	insoluble in 15000 μL	141	137	solubility [1, 6]: 143 mg/mL; solubility ([1]; water): < 50 mg/mL
CCOC(=O)NS(=O)(=O)c1ccc(C)cc1 [PTSA015]	815 µL	500 µL	–	–	IC50 [2, 7]: 4960 µM; IC50 [2, 8]: 4790 µM; IC50 [3, 9]: 5770 µM
Cc1ccc(S(=O)(=O)N2CC(F)(F)C2)cc1 [PTSA064]	750 µL	insoluble in 15000 μL	> 713	> 713	–
Cc1ccc(S(=O)(=O)N2CC(C(=O)NO)C2)cc1 [PTSA067]	870 µL	insoluble in 15000 μL	273	261	solubility [1, 6]: 466 mg/mL (≈ 1720 mM); solubility ([1]; water): < 50 mg/mL
Cc1ccc(S(=O)(=O)N2CC(CO)C2)cc1 [PTSA069]	880 µL	insoluble in 15000 μL	2580	3620	–
Cc1ccc(S(=O)(=O)N2CC(C(=O)[O-])C2)cc1.[Na+] [PTSA061]	2500 µL	750 µL	–	–	IC50 ([2]; Homo sapiens, NCI-H460, 48 h, read-out: IC50 of H460 in DMSO): > 2250 µM; IC50 ([2]; Homo sapiens, NCI-H460, 48 h, read-out: IC50 of H460 in water): > 8800 µM; IC50 ([3]; Homo sapiens, Hep3B, 48 h, read-out: IC50 of Hep3B in DMSO): > 2250 µM; IC50 ([3]; Homo sapiens, Hep3B, 48 h, read-out: IC50 of Hep3B in water): > 8800 µM
Cc1ccc(S(=O)(=O)NC2COC2)cc1 [PTSA040]	475 µL	insoluble in 15000 μL	431	329	solubility [1, 6]: 762 mg/mL (≈ 3350 mM); solubility ([1]; water): < 50 mg/mL; IC50 [2, 8]: 406 µM; IC50 [3, 9]: 413 µM
CC(=O)NS(=O)(=O)c1ccc(C)cc1 [PTSA001]	510 µL	insoluble in 15000 μL	–	–	IC50 [2, 8]: 7720 µM; IC50 [3, 9]: > 9000 µM
Cc1ccc(S(N)(=O)=O)cc1 [p-TSA, Toluene sulfonamide, reference compound]	–	–	–	–	Solubility in DMSO ([1]; DMSO): 785.95 mg/mL (≈ 4590 mM); Solubility in water ([1]; water): <50 mg/mL; IC50 [2, 8]: 3720 ± 146 µM; IC50 [3, 9]: 3730 ± 274 µM
Cc1ccc(S(=O)(=O)N[C@@H](CO)C(=O)O)cc1 [PTSA046]	845 µL	insoluble in 15000 μL	> 10000	> 10000	–
Cc1ccc(S(=O)(=O)N2CC[C@@H](O)C2)cc1 [PTSA035]	490 µL	insoluble in 15000 μL	2830	2280	–
Cc1ccc(S(=O)(=O)N2CC(O)C2)cc1 [PTSA037]	605 µL	insoluble in 15000 μL	288	265	solubility [1, 6]: 832 mg/mL (≈ 3660 mM); solubility ([1]; water): < 50 mg/mL; IC50 [2, 8]: 259 µM; IC50 [3, 9]: 274 µM and 264 µM
COCCNS(=O)(=O)c1ccc(C)cc1 [PTSA042]	475 µL	insoluble in 15000 μL	2490	2750	–

SMILES	Total volume of DMSO for dissolving the p-TSA derivatives ([1]; DMSO)	Total volume of water for dissolving the p-TSA derivatives ([1]; water)	IC50 [2, 4] [µM]	IC50 [3, 5] [µM]	also measured
Cc1ccc(S(=O)(=O)N2CCCC2C(=O)O)cc1 (stereo not drawn) [PTSA047]	2000 µL	2500 µL	> 3000	> 3000	IC50 [2, 7]: > 3000 µM; IC50 [3, 10]: > 3000 µM
Cc1ccc(S(=O)(=O)N[C@@H](C)C(=O)O)cc1 [PTSA045]	2000 µL	insoluble in 15000 μL	> 3000	> 3000	–
Cc1ccc(S(=O)(=O)N2CC(N)C2)cc1.Cl [PTSA074]	2500 µL	10000 µL	> 1800	> 1800	IC50 [2, 7]: 2220 µM; IC50 [3, 10]: 2130 µM
Cc1ccc(S(=O)(=O)NC(CO)(CO)CO)cc1 [PTSA031]	700 µL	10000 µL	3310	4210	IC50 [2, 7]: > 1000 µM; IC50 [3, 10]: > 1000 µM
Cc1ccc(S(=O)(=O)N2CCCC2CO)cc1 (stereo not drawn) [PTSA034]	505 µL	insoluble in 15000 μL	1500	1780	–
NS(=O)(=O)c1ccc(C(=O)O)cc1 [PTSA004]	960 (with pipetting) μL	insoluble in 15000 μL	9670	> 7000	–
Cc1ccc(S(=O)(=O)NC2CCNCC2)cc1.Cl [PTSA052]	2000 µL	5000 µL	906	919	IC50 [2, 7]: 1090 µM; IC50 [3, 10]: 954 µM
Cc1ccc(S(=O)(=O)NCC(F)(F)F)cc1 [PTSA050]	590 µL	insoluble in 15000 μL	–	–	–
Cc1ccc(S(=O)(=O)N2CC(=NO)C2)cc1 [PTSA070]	850 µL	insoluble in 15000 μL	–	–	–
Cc1ccc(S(=O)(=O)N2CCC(N)CC2)cc1.Cl [PTSA053]	15000 µL	2500 µL	–	–	IC50 [2, 7]: 691 µM; IC50 [3, 10]: 770 µM
Cc1ccc(S(=O)(=O)N2CC(CN)C2)cc1.Cl [PTSA068]	4000 µL	4500 µL	1270	1250	IC50 [2, 7]: 1390 µM; IC50 [3, 10]: 1300 µM
Cc1ccc(S(=O)(=O)NC(C)CO)cc1 (stereo not drawn) [PTSA025]	560 µL	insoluble in 15000 μL	3150	3540	–
Cc1ccc(S(=O)(=O)N2CC(=O)C2)cc1 [PTSA066]	3000 µL	insoluble in 15000 μL	906	733	–
CCOC(=O)NS(=O)(=O)c1ccc(C)cc1 [PTSA014]	610 µL	insoluble in 15000 μL	5820	4590	–
Cc1ccc(S(=O)(=O)NCC(C)O)cc1 (stereo not drawn) [PTSA024]	515 µL	insoluble in 15000 μL	3220	3830	–
Cc1ccc(S(=O)(=O)N2CCNCC2)cc1 [PTSA038]	680 µL	insoluble in 15000 μL	1620	1570	–
